Entries after “also recorded” stand apart in the source; their conditions may differ.
Assays:
[1] = system: mouse T lymphocytes (Splenic T-cells); test: T-Cell Proliferation Assay: inhibition of tritiated thymidine uptake in splenic T-cells stimulated with ionomycin + PMA; assay type: cell-based, mouse (C57Bl/6)
Procedure: The principle of this assay is to measure the proliferation of mouse T lymphocytes stimulated with the combination of ionomycin plus PMA.
Cells were pelleted by centrifugation at 1500 rpm for 8 minutes. Contaminating red cells were removed by treating the pellet with ammonium chloride lysing buffer (GIBCO) for 2 minutes at 4° C. Cold medium was added and cells were again centrifuged at 1500 rpm for 8 minutes. T lymphocytes were then isolated by separation of the cell suspension on nylon wool columns as follows: Nylon wool columns were prepared by packing approximately 4 grams of washed and dried nylon wool into 20 ml plastic syringes. The columns were sterilized by autoclaving at 250° F. for 30 minutes. Nylon wool columns were wetted with warm (37° C.) culture medium and rinsed with the same medium. Washed spleen cells resuspended in warm medium were slowly applied to the nylon wool. The columns were then incubated in an upright position at 37° C. for 1 hour. Non-adherent T lymphocytes were eluted from the columns with warm culture medium and the cell suspensions were spun as above.
The cell suspension was immediately distributed into 96 well flat-bottom microculture plates (Costar) at 200 μl/well. […] The proliferation of T lymphocytes was assessed by measurement of tritiated thymidine incorporation. After 44 hours of culturing, the cells were pulse-labelled with 2 μCi/well of tritiated thymidine (NEN, Cambridge, Mass.). After another 4 hours of incubation, cultures were harvested on glass fiber filters using a multiple sample harvester. Radioactivity of filter discs corresponding to individual wells was measured by standard liquid scintillation counting methods (Betacounter). Mean counts per minute of replicate wells were calculated and the results expressed as percent inhibition of tritiated thymidine uptake (proliferation) as follows: [formula]

[2] = Solubility (physical characteristics); assay type: physicochemical; details: in methanol
[3] = EPO Publication No. 0184162; cited from earlier work

SMILES	reversal of inhibition of T-cell proliferation by addition of IL2 ([1]; 50 units/ml recombinant IL2 at the initiation of culture)	FK-506 immunosuppressant activity / immunosuppressive activity in T-cell proliferation assay ([1]; ionomycin plus PMA, result in words)	Solubility [2]	effectiveness relative to cyclosporin (reputed) [3] [times]	inhibition at 0.01 µg/mL ([1]; Mus musculus, T-cell, 48 h, read-out: inhibition (Standard)) [%]
CC[C@@H]1C=C2COC1(O)C[C@H](O)[C@@H](C)[C@@H](/C(C)=C/[C@@H]1CC[C@@H](O)[C@H](OC)C1)OC(=O)[C@@H]1CCCCN1C(=O)C(=O)[C@]1(O)O[C@H]([C@@H](OC)C[C@@H](C)C2)[C@@H](OC)C[C@H]1C [Compound I]	reversed	positive inhibition of T-cell activation; also recorded: positive immunosuppressive activity	Solubility in methanol	–	–
C=CC[C@@H]1/C=C(\C)C[C@H](C)C[C@H](OC)[C@H]2O[C@@](O)(C(=O)C(=O)N3CCCC[C@H]3C(=O)O[C@H](/C(C)=C/[C@@H]3CC[C@@H](O)[C@H](OC)C3)[C@H](C)[C@@H](O)CC1=O)[C@H](C)C[C@@H]2OC [FR900506, reference compound]	–	–	–	100	99

Source: patent publication US5268281A, “Cyclic FR-900520 microbial biotransformation agent” (Merck & Co., Inc., priority 1992, dated 1993)
